The results in this text go back to ChEMBL document CHEMBL3856232, “Synthesis and biological evaluation of novel 2-imino-4-thiazolidinone derivatives as potent anti-cancer agents” (Bioorg Med Chem Lett, 2016).

Structures are written as SMILES. The source made the active and inactive calls. No cut-off for these calls is given here.

Series [1] in a line: (§1) Cytotoxicity against human A549 cells assessed as reduction in cell viability after 48 hrs by MTT assay. The series is classed as functional, cell-based. Particulars: A549, 48 h. A general note: Formazan colour is commonly taken as a measure of viable cells.
Series [2] can be described thus: Cytotoxicity against mouse B16F10 cells assessed as inhibition of cell viability at 4 uM after 48 hrs by MTT assay relative to control. Particulars: B16-F10, 48 h. Type of series: functional.
The nature of series [3]: Cytotoxicity against human A549 cells assessed as inhibition of cell viability at 4 uM after 48 hrs by MTT assay relative to control. Type of series: functional. Conditions: A549, 48 h.
For series [4], the system named is A549. Described as §1. Type of series: functional, cell-based.
In series [5] the test system is B16-F10. Kind of series: (§2) Cytotoxicity against mouse B16F10 cells assessed as reduction in cell viability after 48 hrs by MTT assay. The series is classed as functional, cell-based.
In series [6] the test system is B16-F10. Kind of series: Induction of intracellular hydrogen peroxide accumulation in mouse B16F10 cells at 50 uM after 24 hrs by DCF-DA staining based fluorescence microscopic analysis. Type of series: functional, cell-based.
Series [7] has as its system B16-F10. Kind of series: Induction of apoptosis in mouse B16F10 cells assessed as DNA damage at 50 uM after 24 hrs by propidium iodide/Hoechst staining based FACS analysis. The series is classed as functional, cell-based.
Series [8] is described as follows: Cytotoxicity against CHO cells assessed as reduction in cell viability up to 10 uM after 48 hrs by MTT assay. Particulars: chinese hamster. The series is classed as toxicity, cell-based, Cricetulus griseus.
Series [9] can be described thus: as §2. The series is classed as functional, cell-based. Particulars: B16-F10, 48 h.
Series [10] in a line: Cell cycle arrest in mouse B16F10 cells assessed as accumulation in G2/M phase at 50 uM after 24 hrs by propidium iodide staining based FACS analysis. Type of series: functional. Particulars: B16-F10.
A short description of series [11]: Cytotoxicity against CHO cells assessed as reduction in cell viability at 50 to 100 uM after 48 hrs by MTT assay. The series is classed as toxicity, cell-based, Cricetulus griseus. Particulars: chinese hamster.
In series [12] the test system is B16-F10. Kind of series: Induction of intracellular superoxide radical accumulation in mouse B16F10 cells at 50 uM by dihydroethidium staining based fluorescence microscopic analysis. Type of series: functional, cell-based.
In series [13] the test system is PANC-1. The series is described as follows: Cytotoxicity against human PANC1 cells assessed as reduction in cell viability up to 100 uM after 48 hrs by MTT assay. Type of series: functional, cell-based.
Series [14] can be described thus: Cytotoxicity against CHO cells assessed as reduction in cell viability up to 100 uM after 48 hrs by MTT assay. Type of series: toxicity, cell-based, Cricetulus griseus. Conditions: chinese hamster.
Series [15] is described as follows: Cell cycle arrest in mouse B16F10 cells assessed as accumulation in sub G0/G1 phase at 50 uM after 24 hrs by propidium iodide staining based FACS analysis. Particulars: B16-F10. Type of series: functional. (Flow cytometry measures light scatter and fluorescence of single cells or particles in a stream.)
Series [16] in a line: Cell cycle arrest in mouse B16F10 cells assessed as decrease in G0/G1 phase at 50 uM after 24 hrs by propidium iodide staining based FACS analysis. The series is classed as functional. Conditions: B16-F10.

On to `O=C(CN1CCN(C(=O)c2ccccc2)CC1)Nc1ccc(/N=C2\SCC(=O)N2Cc2cccs2)cc1`, for which the IC50 (as a rule, the concentration needed to halve the response being measured) in series [1] is 10 µM.

For `COc1cccc2c1C(=O)c1c(O)c3c(c(O)c1C2=O)C[C@@](O)(C(=O)CO)C[C@@H]3O[C@H]1C[C@H](N)[C@H](O)[C@H](C)O1` [DOXORUBICIN], the inhibition (usually the change of the read-out against control, counted positive when it falls) at 4 µM in series [2] stood at 40.9%; in series [3] it was 28%.

`O=C(CN1CCSCC1)Nc1ccc(/N=C2\SCC(=O)N2Cc2ccco2)cc1`: the result in series [4] and in series [5] was Active.

Take `N#Cc1ccccc1N1CCN(CC(=O)Nc2ccc(/N=C3\SCC(=O)N3Cc3ccco3)cc2)CC1`: the result in [4] and in [5] was Active.

Consider `O=C(CN1CCCC1)Nc1ccc(/N=C2\SCC(=O)N2Cc2ccco2)cc1`, for which the result in series [4] and in [5] was Active.

Consider `CN(C)CC(=O)Nc1ccc(/N=C2\SCC(=O)N2Cc2ccco2)cc1`, for which the outcome in series [4] and in [5] was Active.

As for `CCCNCC(=O)Nc1ccc(/N=C2\SCC(=O)N2Cc2cccs2)cc1`, the outcome in series [6], in [7], in [10] and in series [12] was Active. Also, the Activity result in series [8] was “Non-Toxic”; in series [11], “Toxic”. In series [9], the IC50 is 3.4 µM.

Consider `O=C(CN1CCOCC1)Nc1ccc(/N=C2\SCC(=O)N2Cc2cccs2)cc1`, for which the IC50 in series [1] came to 12.6 µM.

Take `COc1ccccc1N1CCN(CC(=O)Nc2ccc(/N=C3\SCC(=O)N3Cc3ccco3)cc2)CC1`: the result in [4] and in series [5] was Active.

As to `O=C(CN1CCSCC1)Nc1ccc(/N=C2\SCC(=O)N2Cc2cccs2)cc1`, the IC50 in series [1] came out at 10 µM.

As for `CCNCC(=O)Nc1ccc(/N=C2\SCC(=O)N2Cc2cccs2)cc1`, the results for the IC50 in series [1] and in series [9] were 12.6 µM and 11.6 µM, respectively. Also, the result in series [13] was Active.

For the compound `O=C(CN1CCN(c2ccccn2)CC1)Nc1ccc(/N=C2\SCC(=O)N2Cc2cccs2)cc1`, the outcome in series [4] and in [5] was Active.

`O=C(CN1CCN(c2ccc(F)cc2)CC1)Nc1ccc(/N=C2\SCC(=O)N2Cc2cccs2)cc1`: the outcome in series [4] and in series [5] was Active.

Take `CCN(CC)CC(=O)Nc1ccc(/N=C2\SCC(=O)N2Cc2cccs2)cc1`: the Activity entry in [14] is “Non-Toxic”. The IC50 in series [1] was 12.5 µM; in [9], 7 µM. For the same compound, the outcome in series [15], in series [7] and in series [16] was Active.

With `O=C(CN1CCCCC1)Nc1ccc(/N=C2\SCC(=O)N2Cc2cccs2)cc1`, the outcome in [4] and in series [5] was Active.

`O=C(CN1CCOCC1)Nc1ccc(/N=C2\SCC(=O)N2Cc2ccco2)cc1`: the outcome in series [4] and in series [5] was Active.

As to `CN(C)CC(=O)Nc1ccc(/N=C2\SCC(=O)N2Cc2cccs2)cc1`, the result in series [4] and in series [5] was Active.

Regarding `CN1CCN(CC(=O)Nc2ccc(/N=C3\SCC(=O)N3Cc3cccs3)cc2)CC1`, the result in series [4] and in [5] was Active.

For the compound `CCN(CC)CC(=O)Nc1ccc(/N=C2\SCC(=O)N2Cc2ccco2)cc1`, the result in [4] and in series [5] was Active.

On to `O=C(CN1CCCCC1)Nc1ccc(/N=C2\SCC(=O)N2Cc2ccco2)cc1`, for which the outcome in series [4] and in series [5] was Active.

With `O=C(CN1CCCC1)Nc1ccc(/N=C2\SCC(=O)N2Cc2cccs2)cc1`, the Activity entry in [14] is on record as “Non-Toxic”. Moreover, the result in series [15], in [7] and in series [16] was Active. Moreover, the 50% inhibitory concentration (IC50) in [9] was determined as 5.4 µM.
